In US20240366655A1, “COMBINATION DRUG THERAPIES” (CYBIN IRL LIMITED, priority 2021, published 2024):
Read-outs that look alike come from different tables or passages of the source.

Key:
[1] = cited from earlier work
[2] = rats, following intraperitoneal injection; cited from earlier work
[3] = biological target: T1, serotonin 5-HT2A receptor (Mus musculus, UniProt P35363); conditions: 1 mg/kg dose, intraperitoneal, rats and mice; cited from earlier work
T1 construct: endogenous in cells; host or cells: living mice (in vivo behavioural assay); receptor endogenous to the animal

[4] = Plasma pharmacokinetics of co-administered DMT and DMT-d10 by intravenous (bolus), oral gavage and inhalation administration to male rats; conditions: for time of peak plasma concentration postdose: after oral administration; for mean residence time (MRT) after inhalation compared to IV administration: inhalation vs IV; for F: calculated from dose normalized AUC0-1 mean values vs Group 4 IV; for bioavailability / Tmax / half-life / AUC(0-t) / AUC0-inf / Cmax / MRT last / AUC0-1/dose / t1/2: plasma
[5] = Experiment 6: blood neurotrophic and endocrine biomarkers after DMT+N2O in healthy human participants; conditions: DMT 0.1, 0.2, 0.4 mg/kg
Text: General experimental design. The proposed studies aim to define proof-of-concept synergistic interactions of inhalational DMT fumarate with N2O, or IV DMT fumarate administered as a bolus over 30 seconds. Healthy adult participants will be exposed to either inhalational DMT in 20-25% N2O in oxygen as the carrier gas, or inhalational DMT in oxygen alone as the carrier gas in a blinded manner, or IV DMT while inhaling 20-25% N2O in oxygen, or oxygen.
Pre-study: Baseline measurements of heart rate, body temperature and blood pressure will be made. An IV cannula will be inserted into a forearm vein for blood sampling and to allow administration of DMT as a bolus in the IV condition. Participants will be allowed to relax for 30 min before the drug session. Study session: Participants will receive administration of either 20-25% N2O in oxygen, or oxygen alone, for 10 minutes prior to the administration of a high, medium or low dose of inhalational or IV DMT (0.4, 0.2, 0.1 mg/kg) over the course of 30 sec-1 minute. […]
Baseline blood samples will be drawn 30 minutes before N2O or oxygen administration, and after 8 mins of N2O or oxygen administration for endocrine markers of HPA axis activation: corticotropin, β-endorphin, prolactin, GH and cortisol levels. Further blood samples will be drawn, and vital signs measured 2, 15, 60 and 120 minutes after DMT administration. […]

[6] = Brain pharmacokinetics and brain to plasma ratio after IV co-administration of DMT and DMT-d10 to male rats (Group 4); assay type: in vivo, Sprague Dawley rats; conditions: for Cmax / Tmax / half-life / Kp: Sprague Dawley, rat; for Cmax / Tmax / AUC0-inf / AUC(0-t) / half-life: brain; for Cmax / Tmax / AUC0-inf / AUC(0-t): Group 4 IV bolus 1 mg/kg, male rats; for Distribution into brain: after IV co-administration; for half-life / Kp: male, 1 mg/kg; for half-life: Group 4 IV, calculated 0.25 to 1 hr; for Kp: brain / plasma, intravenous, read-out: B/P (AUC0-1), brain to plasma ratio
Procedure: The pharmacokinetics and bioavailability of N,N-dimethyltryptamine (DMT) and 2-(1H-indol-3-yl)-N,N-bis(methyl-d3)ethan-1-amine-1,1,2,2-d4 (DMT-d10) were investigated in rats following intravenous (bolus), oral gavage (OG), and inhalation after co-dose administration.
Sampling collection. PK samples (0.3 mL) were collected from the jugular vein by venepuncture into tubes containing K2EDTA anticoagulant at the following sampling times: Group 1 (IV) and Group 2 (oral) serial plasma collection at 0.083, 0.25, 0.5, 1, 3, 8 and 24 hr postdose; Group 4 (IV) composite plasma and brain collection at 0.083, 0.25, 0.5 and […]; Group 6 (inhalation) serial plasma collection at 0.333, 0.533, 0.833, 1.333, 3.333, 8.333 and 24.333 after start of inhalation.
Brain samples: After extraction of whole brain from the cranium, brains were rinsed, patted dry, weighed, placed into tubes and frozen on dry ice. Thereafter, they were stored at −70 (10°) C pending analysis.
Bioanalysis. Plasma and brain homogenates were analyzed for DMT and DMT-d10 using an established LC-MS/MS assay.) Pharmacokinetic parameters were determined from the DMT and DMT-d10 plasma and brain concentration-time profiles using commercially available software (Phoenix® WinNonlin®).

[7] = human, IV bolus of DMT (as fumarate salt), 0.05-0.4 mg/kg
[8] = inhalation, DMT 15.3 mg/kg, DMT-d10 14.7 mg/kg
[9] = male, Sprague Dawley, rat, inhaled
[10] = male, Sprague Dawley, rat, inhaled or intranasal
[11] = male, Sprague Dawley, rat, inhaled or intranasal, AUC0-1, plasma, Group 6 inhalation, DMT 15.3 mg/kg, DMT-d10 14.7 mg/kg
[12] = male, Sprague Dawley, rat, inhaled or intranasal, AUC0-1, plasma, inhalation, DMT 15.3 mg/kg, DMT-d10 14.7 mg/kg (summary table)
[13] = male, Sprague Dawley, rat, inhaled or intranasal, AUC0-t, Group 6 inhalation, DMT 15.3 mg/kg, DMT-d10 14.7 mg/kg
[14] = male, Sprague Dawley, rat, iv, 1 mg/kg
[15] = male, Sprague Dawley, rat, iv, 1 mg/kg, AUC0-1, plasma, 1 mg/kg (summary table)
[16] = male, Sprague Dawley, rat, iv, 1 mg/kg, AUC0-1, plasma, Group 4 IV bolus, 1 mg/kg, male rats
[17] = male, Sprague Dawley, rat, iv, 1 mg/kg, AUC0-t, Group 4 IV bolus, 1 mg/kg, male rats
[18] = male, Sprague Dawley, rat, po, 10 mg/kg
[19] = male, Sprague Dawley, rat, po, 10 mg/kg, AUC0-1, plasma, 10 mg/kg (summary table)
[20] = male, Sprague Dawley, rat, po, 10 mg/kg, AUC0-1, plasma, Group 2 oral gavage (OG), 10 mg/kg, male rats
[21] = male, Sprague Dawley, rat, po, 10 mg/kg, AUC0-t, Group 2 oral gavage (OG), 10 mg/kg, male rats
[22] = inhalation, calculated 0.333 to 3.333 hr (summary table)
[23] = intravenous 1 mg/kg, calculated 0.083 to 1.0 hr (summary table)

T1 sequence (P35363 whole entry): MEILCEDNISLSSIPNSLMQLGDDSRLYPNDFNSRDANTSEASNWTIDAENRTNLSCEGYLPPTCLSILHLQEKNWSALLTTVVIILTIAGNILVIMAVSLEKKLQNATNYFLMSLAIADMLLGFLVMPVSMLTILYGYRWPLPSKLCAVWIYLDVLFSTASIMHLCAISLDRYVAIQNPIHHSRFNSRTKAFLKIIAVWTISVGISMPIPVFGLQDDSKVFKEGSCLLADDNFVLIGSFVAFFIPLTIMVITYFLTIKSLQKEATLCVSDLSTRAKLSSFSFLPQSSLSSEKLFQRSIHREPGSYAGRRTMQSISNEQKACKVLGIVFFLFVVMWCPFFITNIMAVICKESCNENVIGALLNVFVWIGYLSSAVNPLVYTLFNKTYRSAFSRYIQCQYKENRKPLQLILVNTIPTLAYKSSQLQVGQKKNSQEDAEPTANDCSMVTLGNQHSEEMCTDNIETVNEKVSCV

SMILES: CN(C)CCc1c[nH]c2ccccc12 [DMT, N,N-dimethyltryptamine]
- half-life ([1]; administered intravenously): around 15 minutes
- time to peak plasma concentrations ([1]; administered intravenously): approximately 2 minutes
- subjective effects ([1]; human, 0.1 mg/kg IV): not hallucinogenic
- subjective effects ([1]; human, 0.2 and 0.4 mg/kg IV): nearly instantaneous onset of visual hallucinatory phenomena, bodily dissociation, and extreme shifts in mood
- peak of psycho-biological effects after administration [1, 7]: 120 seconds
- time by which psycho-biological effects resolve [1, 7]: ≤ 30 minutes
- duration of effect ([1]; vaporized DMT): less than 30 min
- half-life [2]: 5 to 15 min
- time to be metabolized and cleared from brain, liver, and plasma [2]: ≤ 1 h
- hallucinogenic effect as measured by head-twitch responses (HTRs) [3]: sub-hallucinogenic
- time of highest plasma concentration (first time point taken) ([4]; after IV bolus): 0.083 h
- time of highest plasma concentration (first time point taken) ([4]; after inhalation): 0.333 h
- time of peak plasma concentration postdose [4]: 1 h
- mean residence time (MRT) after inhalation compared to IV administration [4]: approximately 2 ×
- F [4, 8]: 15.3%
- bioavailability [4, 9]: 15.3%
- Tmax [4, 10]: 20 min
- half-life [4, 10]: 19.7 min
- AUC(0-t) [4, 11]: 265 ng·h/mL
- AUC(0-t) [4, 12]: 265 ng·h/mL
- AUC(0-t) [4, 13]: 300 ng·h/mL
- AUC0-inf [4, 14]: 115 ng·h/mL
- Cmax [4, 14]: 314 ng/mL
- MRT last [4, 14]: 13.6 min
- half-life [4, 14]: 10.1 min
- AUC(0-t) [4, 15]: 113 ng·h/mL
- AUC(0-t) [4, 16]: 113 ng·h/mL
- AUC(0-t) [4, 17]: 113 ng·h/mL
- Cmax [4, 18]: 28 ng/mL
- MRT last [4, 18]: 172 min
- Tmax [4, 18]: 60 min
- bioavailability [4, 18]: 1.2%
- AUC(0-t) [4, 19]: 13.7 ng·h/mL
- AUC(0-t) [4, 20]: 13.7 ng·h/mL
- AUC(0-t) [4, 21]: 65 ng·h/mL
- F ([4]; oral gavage 10 mg/kg): 1.2%
- AUC0-1/dose [4, 8]: 17.3
- t1/2 [4, 22]: 19.7 min
- t1/2 [4, 23]: 10.1 min
- AUC0-1/dose ([4]; intravenous, 1 mg/kg): 113
- AUC0-1/dose ([4]; oral, 10 mg/kg): 1.37
- levels of VEGF and BDNF in blood [5]: dose-dependently increased levels
- Cmax [6]: 3430 ng/g
- Tmax [6]: 5 min
- Distribution into brain [6]: high
- AUC0-inf [6]: 1070 ng·h/g
- AUC(0-t) [6]: 1060 ng·h/g
- half-life [6]: 9.3 min
- Kp [6]: 9

SMILES: [2H]C([2H])([2H])N(C([2H])([2H])[2H])C([2H])([2H])C([2H])([2H])c1c[nH]c2ccccc12 [DMT-d10, 2-(1H-indol-3-yl)-N,N-bis(methyl-d3)ethan-1-amine-1,1,2,2-d4]
- increase of inhalation bioavailability by deuteration ([4]; DMT-d10 vs. DMT): approximately 60%
- time of highest plasma concentration (first time point taken) ([4]; after IV bolus): 0.083 h
- time of highest plasma concentration (first time point taken) ([4]; after inhalation): 0.333 h
- time of peak plasma concentration postdose [4]: 1 h
- mean residence time (MRT) after inhalation compared to IV administration [4]: approximately 2 ×
- F [4, 8]: 24.3%
- bioavailability [4, 9]: 24.3%
- Tmax [4, 10]: 20 min
- half-life [4, 10]: 23.7 min
- AUC(0-t) [4, 11]: 267 ng·h/mL
- AUC(0-t) [4, 12]: 267 ng·h/mL
- AUC(0-t) [4, 13]: 361 ng·h/mL
- AUC0-inf [4, 14]: 92.6 ng·h/mL
- Cmax [4, 14]: 148 ng/mL
- MRT last [4, 14]: 20.9 min
- half-life [4, 14]: 26.5 min
- AUC(0-t) [4, 15]: 74.6 ng·h/mL
- AUC(0-t) [4, 16]: 74.6 ng·h/mL
- AUC(0-t) [4, 17]: 74.6 ng·h/mL
- Cmax [4, 18]: 20.8 ng/mL
- MRT last [4, 18]: 221 min
- Tmax [4, 18]: 60 min
- bioavailability [4, 18]: 1.2%
- AUC(0-t) [4, 19]: 8.78 ng·h/mL
- AUC(0-t) [4, 20]: 8.78 ng·h/mL
- AUC(0-t) [4, 21]: 77.2 ng·h/mL
- F ([4]; oral gavage 10 mg/kg): 1.2%
- Cmax ([4]; Group 4 IV bolus, 1 mg/kg, male rats): 148 ng/mL
- AUC0-1/dose [4, 8]: 18.2
- t1/2 [4, 22]: 23.7 min
- t1/2 [4, 23]: 26.5 min
- AUC0-1/dose ([4]; intravenous, 1 mg/kg): 74.6
- AUC0-1/dose ([4]; oral, 10 mg/kg): 0.878
- improvement of brain to plasma (B/P) ratio by deuteration ([6]; DMT-d10 vs. DMT, IV): approximately 50%
- Cmax [6]: 1490 ng/g
- Tmax [6]: 5 min
- Distribution into brain [6]: high
- AUC0-inf [6]: 1290 ng·h/g
- AUC(0-t) [6]: 931 ng·h/g
- half-life [6]: 33.9 min
- Kp [6]: 14
